# Reference: US20230167073A1 (Teijin Pharma Limited, priority 2020, published 2023)
# Molecular target: T1, Human TRPC6 (Homo sapiens, UniProt Q9Y210)
# T1 construct: expressed in transfected cells
# T1 sequence (Q9Y210 1-931): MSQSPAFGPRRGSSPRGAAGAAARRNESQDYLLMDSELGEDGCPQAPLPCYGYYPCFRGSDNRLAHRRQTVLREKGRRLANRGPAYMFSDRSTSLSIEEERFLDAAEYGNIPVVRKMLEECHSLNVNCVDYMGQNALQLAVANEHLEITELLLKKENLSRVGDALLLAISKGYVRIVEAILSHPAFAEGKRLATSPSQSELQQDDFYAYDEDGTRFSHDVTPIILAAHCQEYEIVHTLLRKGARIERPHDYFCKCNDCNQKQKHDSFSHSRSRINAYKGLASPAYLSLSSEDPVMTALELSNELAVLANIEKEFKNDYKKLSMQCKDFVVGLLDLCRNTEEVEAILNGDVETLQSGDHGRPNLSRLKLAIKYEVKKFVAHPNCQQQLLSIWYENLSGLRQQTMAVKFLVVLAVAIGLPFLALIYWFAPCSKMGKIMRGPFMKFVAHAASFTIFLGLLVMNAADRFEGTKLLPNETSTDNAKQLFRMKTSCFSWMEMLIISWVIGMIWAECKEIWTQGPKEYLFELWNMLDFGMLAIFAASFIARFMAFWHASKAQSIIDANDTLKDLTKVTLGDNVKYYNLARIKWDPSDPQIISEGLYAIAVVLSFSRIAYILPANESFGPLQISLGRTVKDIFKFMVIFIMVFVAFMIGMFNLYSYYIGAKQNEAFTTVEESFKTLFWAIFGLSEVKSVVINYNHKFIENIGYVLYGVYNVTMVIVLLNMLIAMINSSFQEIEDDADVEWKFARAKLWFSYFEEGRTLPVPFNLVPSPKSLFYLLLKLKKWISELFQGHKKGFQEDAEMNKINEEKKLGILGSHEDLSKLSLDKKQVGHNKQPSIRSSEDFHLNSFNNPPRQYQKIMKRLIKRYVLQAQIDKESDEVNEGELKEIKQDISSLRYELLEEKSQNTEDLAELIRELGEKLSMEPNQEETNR
# Assay: Evaluation of TRPC6 channel inhibitory activity (1), FLIPR Calcium 5 Assay Kit, OAG stimulation (Compound Nos. 1-1293)
# Type: cell-based
# Settings: Human TRPC6 stably-expressing cells, OAG 30 μM, FLIPR Calcium 5 Assay Kit; read-out: Inhibitory activity (pIC50 class) (converted)
# Summary of the method: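 Calcium influx read by FLIPR fluorescence in cells stably expressing human TRPC6, dye-loaded 30 min. Compounds preincubated 20 min, then OAG stimulation at 30 μM final. Inhibition fitted by four-parameter logistic regression to give pIC50, reported as +/++/+++ categories.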
row,Compound,IC50
1,"CCCCOc1cc(Oc2cc(C#N)ccc2-c2ccc(CCN)cc2)nc(C)n1 [Compound 38, 4-[4-(2-aminoethyl)phenyl]-3-(6-butoxy-2-methylpyrimidin-4-yl)oxybenzonitrile]",> 1000 nM
2,"Cc1nn(CC(F)(F)F)c(C)c1Oc1cc(C#N)ccc1-c1ncc(CCN)cn1 [compound 943, 4-[5-(2-aminoethyl)pyrimidin-2-yl]-3-[3,5-dimethyl-1-(2,2,2-trifluoroethyl)pyrazol-4-yl]oxybenzonitrile]",> 1000 nM
3,"Cc1nc(Oc2cc(C#N)ccc2-c2ccc([C@H](O)CN)cn2)cc(N2CCCC2)n1 [compound 507, 4-[5-[(1S)-2-amino-1-hydroxyethyl]pyridin-2-yl]-3-(2-methyl-6-pyrrolidin-1-ylpyrimidin-4-yl)oxybenzonitrile]",< 10 nM
4,"Cc1nc(Oc2cc(C#N)ccc2-n2cc(C(O)CN)cn2)cc(-c2cccc(F)c2)n1 (centres unmarked) [Compound 141, 4-[4-(2-amino-1-hydroxyethyl)pyrazol-1-yl]-3-[6-(3-fluorophenyl)-2-methylpyrimidin-4-yl]oxybenzonitrile]",10 to 1000 nM
5,"Cn1nc(C2CC2)cc1Oc1cc(C#N)ccc1-c1ccc(C(N)c2nnn[nH]2)cn1 (centres unmarked) [compound 511, 4-[5-[amino(1H-tetrazol-5-yl)methyl]pyridin-2-yl]-3-(5-cyclopropyl-2-methylpyrazol-3-yl)oxybenzonitrile]",> 1000 nM
6,"Cc1nc(Oc2cc(F)ccc2-c2ccc(CCN)cn2)cc(N2CCOCC2)n1 [compound 1001, 2-[6-[4-fluoro-2-(2-methyl-6-morpholin-4-ylpyrimidin-4-yl)oxyphenyl]pyridin-3-yl]ethanamine]",< 10 nM
7,"Cn1nc(C2CC2)cc1Oc1cc(C#N)ccc1-c1ccc(OCCN)cn1 [compound 348, 4-[5-(2-aminoethoxy)pyridin-2-yl]-3-(5-cyclopropyl-2-methylpyrazol-3-yl)oxybenzonitrile]",< 10 nM
8,"Cc1c(Oc2cc(C#N)ccc2-c2ncc(CCN)cn2)cnn1CC(C)(C)C [compound 938, 4-[5-(2-aminoethyl)pyrimidin-2-yl]-3-[1-(2,2-dimethylpropyl)-5-methylpyrazol-4-yl]oxybenzonitrile]",10 to 1000 nM
9,"CN(C)c1cc(Cc2cc(C#N)ccc2-c2ncc(CN)cn2)n(C)n1 [compound 1209, 4-[5-(aminomethyl)pyrimidin-2-yl]-3-[[5-(dimethylamino)-2-methylpyrazol-3-yl]methyl]benzonitrile]",10 to 1000 nM
10,"N#Cc1ccc(-c2ncc(CN)cn2)c(Oc2cnnc(NC3COC3)c2)c1 [compound 766, 4-[5-(aminomethyl)pyrimidin-2-yl]-3-[6-(oxetan-3-ylamino)pyridazin-4-yl]oxybenzonitrile]",> 1000 nM
11,"CC(C)C(N)c1cnc(-c2ccc(C#N)cc2Oc2cc(-c3ccccn3)nn2C)nc1 (centres unmarked) [compound 768, 4-[5-(1-amino-2-methylpropyl)pyrimidin-2-yl]-3-(2-methyl-5-pyridin-2-ylpyrazol-3-yl)oxybenzonitrile]",< 10 nM
12,"COC(c1cnc(-c2ccccc2)s1)c1cc(C#N)ccc1-c1ccc(CCN)cc1 (centres unmarked) [compound 1230, 4-[4-(2-aminoethyl)phenyl]-3-[methoxy-(2-phenyl-1,3-thiazol-5-yl)methyl]benzonitrile]",> 1000 nM
13,"N#Cc1ccc(-c2ncc(CN)cn2)c(Oc2cnnc(-n3ccccc3=O)c2)c1 [compound 820, 4-[5-(aminomethyl)pyrimidin-2-yl]-3-[6-(2-oxopyridin-1-yl)pyridazin-4-yl]oxybenzonitrile]",> 1000 nM
14,"N#Cc1ccc(-c2ccc(CCN)cc2)c(Cn2cnc(-c3ccc(C(F)(F)F)cc3)c2)c1 [compound 1124, 4-[4-(2-aminoethyl)phenyl]-3-[[4-[4-(trifluoromethyl)phenyl]imidazol-1-yl]methyl]benzonitrile]",> 1000 nM
15,"Cn1nc(C(F)F)cc1Oc1cc(C#N)ccc1-c1ncc(CN)cn1 [compound 829, 4-[5-(aminomethyl)pyrimidin-2-yl]-3-[5-(difluoromethyl)-2-methylpyrazol-3-yl]oxybenzonitrile]",10 to 1000 nM
16,"Cn1nc(C2CC2)cc1Oc1cc(C#N)ccc1-c1cccn2c([C@@H](N)CCO)nnc12 (stereo in doubt) [compound 533, 4-[3-(1-amino-3-hydroxypropyl)-[1,2,4]triazolo[4,3-a]pyridin-8-yl]-3-(5-cyclopropyl-2-methylpyrazol-3-yl)oxybenzonitrile]",> 1000 nM

row,Compound,IC50
1,"N#Cc1ccc(-c2ncc(CCN)cn2)c(Cn2cc(N3CCCC3)cn2)c1 [Compound No. 1198, 4-[5-(2-Aminoethyl)pyrimidin-2-yl]-3-[(4-pyrrolidin-1-ylpyrazol-1-yl)methyl]benzonitrile]",10 to 1000 nM
2,"N#Cc1ccc(-c2ncc(CN)cn2)c(Oc2cc(N3CCOCC3)cnn2)c1 [compound 535, 4-[5-(aminomethyl)pyrimidin-2-yl]-3-(5-morpholin-4-ylpyridazin-3-yl)oxybenzonitrile]",> 1000 nM
3,"Cn1nc(C(F)(F)F)cc1Oc1cc(C#N)ccc1-c1ccc(CN)cn1 [compound 810, 4-[5-(aminomethyl)pyridin-2-yl]-3-[2-methyl-5-(trifluoromethyl)pyrazol-3-yl]oxybenzonitrile]",< 10 nM
4,"CC(N)c1ccc(-c2ccc(C#N)cc2Oc2cc(-c3ccccn3)nn2C)nc1 (centres unmarked) [compound 396, 4-[5-(1-aminoethyl)pyridin-2-yl]-3-(2-methyl-5-pyridin-2-ylpyrazol-3-yl)oxybenzonitrile]",< 10 nM
5,Cc1cc(Oc2cc(C#N)ccc2-c2ncc(C(C)N)cn2)cc(N2CCOCC2)n1 (centres unmarked) [compound 701],< 10 nM
6,"N#Cc1ccc(-c2ccc(CCN)cc2)c(Oc2cnnc(-c3ccccc3C(=O)O)c2)c1 [Compound 121, 2-[5-[2-[4-(2-aminoethyl)phenyl]-5-cyanophenoxy]pyridazin-3-yl]benzoic acid]",> 1000 nM
7,"CCN(CC)c1cc(C(=O)c2cc(C#N)ccc2-c2ncc(CN)cn2)n(C)n1 [compound 1061, 4-[5-(aminomethyl)pyrimidin-2-yl]-3-[5-(diethylamino)-2-methylpyrazole-3-carbonyl]benzonitrile]",< 10 nM
8,"Cn1nc(-c2ccccc2)cc1Oc1nc(C#N)ccc1-c1ccc(CCN)cn1 [Compound No. 1279, 5-[5-(2-Aminoethyl)pyridin-2-yl]-6-(2-methyl-5-phenylpyrazol-3-yl)oxypyridine-2-carbonitrile]",< 10 nM
9,"Cc1nc(Oc2cc(C#N)ccc2-c2ncc([C@H](O)CN)cn2)cc(N2CCO[C@@H](C)C2)n1 [compound 559, 4-[5-[(1S)-2-amino-1-hydroxyethyl]pyrimidin-2-yl]-3-[2-methyl-6-[(2S)-2-methylmorpholin-4-yl]pyrimidin-4-yl]oxybenzonitrile]",10 to 1000 nM
10,"Cn1nc(C2CC2)cc1Oc1cc(C#N)ccc1-c1nnc2n1CCNC2 [compound 763, 3-(5-cyclopropyl-2-methylpyrazol-3-yl)oxy-4(5,6,7,8-tetrahydro-[1,2,4]triazolo[4,3-a]pyrazin-3-yl)benzonitrile]",> 1000 nM
11,"Cc1nc(Oc2cc(C#N)ccc2-c2cnc(N)nc2)cc(N2CCOCC2)n1 [Compound 14, 4-(2-aminopyrimidin-5-yl)-3-(2-methyl-6-morpholin-4-ylpyrimidin-4-yl)oxybenzonitrile]",> 1000 nM
12,"CC(C)Cn1cc(Cc2cc(F)ccc2-c2ccc(CCN)cn2)cn1 [compound 1221, 2-[6-[4-fluoro-2-[[1-(2-methylpropyl)pyrazol-4-yl]methyl]phenyl]pyridin-3-yl]ethanamine]",10 to 1000 nM
13,"Cn1nc(C(F)F)cc1Oc1cc(C#N)ccc1-c1ncc(CCN)cn1 [compound 384, 4-[5-(2-aminoethyl)pyrimidin-2-yl]-3-[5-(difluoromethyl)-2-methylpyrazol-3-yl]oxybenzonitrile]",< 10 nM
14,"Cc1nc(Oc2cc(C#N)ccc2-c2ncc(CN)cn2)cc(OC2COC2)n1 [compound 895, 4-[5-(aminomethyl)pyrimidin-2-yl]-3-[2-methyl-6-(oxetan-3-yloxy)pyrimidin-4-yl]oxybenzonitrile]",> 1000 nM
15,"N#Cc1ccc(-c2ncc(CN)cn2)c(Cn2ncc(-c3ccccc3)n2)c1 [compound 1170, 4-[5-(aminomethyl)pyrimidin-2-yl]-3-[(4-phenyltriazol-2-yl)methyl]benzonitrile]",> 1000 nM
16,"Cc1nc(Sc2cc(C#N)ccc2-c2ccc(CCN)cn2)cc(N2CCCCC2)n1 [compound 1249, 4-[5-(2-aminoethyl)pyridin-2-yl]-3-(2-methyl-6-piperidin-1-ylpyrimidin-4-yl)sulfanylbenzonitrile]",< 10 nM
